Test results published in ChEMBL document CHEMBL1201862, “PubChem BioAssay data set” (2004).
Active and inactive are the calls of the source.

How the values were obtained:
HEK293 = test: EBV LMP1 TES2 canonical NF-kB signalling blockers – cell-based, HEK293, luciferase, cherry-pick, dose response (AID 588343); format: functional; settings: Homo sapiens
[1] = blockers of CRF-binding protein–CRF-R2 complex – cell-based, uHTS hits, 384-well, dose response (AID 651639); format: functional, Homo sapiens; settings: read-out: IC50_Mean
[2] = molecular target: T1, Corticotropin-releasing factor receptor 2/Corticotropin-releasing factor-binding protein (Homo sapiens, UniProt P24387+Q13324); test: activators of CRF receptor 2 with binding protein – uHTS hits, confirmation (AID 602473); format: functional; settings: read-out: EC50_Mean
T1 sequence (Q13324 whole entry): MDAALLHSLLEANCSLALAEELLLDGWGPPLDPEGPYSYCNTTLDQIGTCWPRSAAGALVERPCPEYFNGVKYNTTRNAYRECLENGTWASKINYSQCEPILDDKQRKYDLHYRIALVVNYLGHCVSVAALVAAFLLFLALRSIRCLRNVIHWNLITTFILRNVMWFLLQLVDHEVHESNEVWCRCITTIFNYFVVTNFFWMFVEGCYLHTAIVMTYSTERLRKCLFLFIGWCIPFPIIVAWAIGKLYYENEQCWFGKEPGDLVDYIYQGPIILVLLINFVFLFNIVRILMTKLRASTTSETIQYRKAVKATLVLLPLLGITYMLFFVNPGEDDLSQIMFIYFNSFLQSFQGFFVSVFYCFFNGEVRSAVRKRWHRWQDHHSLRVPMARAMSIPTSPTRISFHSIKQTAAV
T1 sequence (P24387 whole entry): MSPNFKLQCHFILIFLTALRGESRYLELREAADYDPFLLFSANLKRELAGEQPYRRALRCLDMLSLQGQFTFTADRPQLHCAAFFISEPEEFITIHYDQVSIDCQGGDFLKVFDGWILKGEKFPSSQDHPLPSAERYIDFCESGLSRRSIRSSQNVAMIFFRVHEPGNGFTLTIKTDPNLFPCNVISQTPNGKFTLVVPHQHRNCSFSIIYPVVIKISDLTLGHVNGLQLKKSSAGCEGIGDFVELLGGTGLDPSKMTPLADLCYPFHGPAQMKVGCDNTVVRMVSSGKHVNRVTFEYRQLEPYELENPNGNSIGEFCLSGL

[3] = molecular target: Latent membrane protein 1 (Human herpesvirus 4 (strain B95-8), UniProt P03230); test: LMP1 TES1 pathway selectivity over dsRED control – imaging, HEK293T, dual-color eGFP/dsRED, cherry-picks, selectivity assay for LMP1 NF-kB inhibitor project, dose response (AID 588398); format: functional, cell-based
Sequence of Latent membrane protein 1 (P03230 whole entry): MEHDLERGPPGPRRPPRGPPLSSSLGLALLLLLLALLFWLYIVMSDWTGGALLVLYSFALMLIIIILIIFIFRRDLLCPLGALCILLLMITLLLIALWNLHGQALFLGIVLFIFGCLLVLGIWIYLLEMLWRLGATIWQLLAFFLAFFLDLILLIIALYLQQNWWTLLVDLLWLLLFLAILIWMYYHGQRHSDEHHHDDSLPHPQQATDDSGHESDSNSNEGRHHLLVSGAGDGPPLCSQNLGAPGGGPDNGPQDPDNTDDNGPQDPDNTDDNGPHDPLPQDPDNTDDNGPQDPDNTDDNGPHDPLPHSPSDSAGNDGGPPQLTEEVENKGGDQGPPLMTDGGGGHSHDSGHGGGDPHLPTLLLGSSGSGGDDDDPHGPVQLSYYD

[4] = molecular target: T1, Corticotropin-releasing factor receptor 2/Corticotropin-releasing factor-binding protein; test: Dose Response confirmation of uHTS hits for small molecule antagonists of the CRF-binding protein and CRF-R2 receptor complex.; format: functional; settings: read-out: IC50_Mean

Q: With `CC(C)c1cc(NC(=O)c2ccccc2)cc(C(C)C)c1O` as the molecule, how does the AC50 (HEK293) read?
A: 98.1 µM (active)

Q: What about the IC50 [1] of the same molecule?
A: 5.7 µM (active)

Q: What about the EC50 [2] of the same molecule?
A: > 53 µM (inactive)

Q: And the AC50 [3]?
A: 30 µM (active)

Q: What about the IC50 [4] of the same molecule?
A: < 0.368 µM (active)
